Test results published in US20110244028A1, “METHOD OF SOLUBILIZING BIOLOGICALLY ACTIVE COMPOUNDS” (priority 2008, published 2011).
Like-named read-outs stand apart in the source and are kept apart here.

How the values were obtained:
[1] = for precipitation in liposomal dispersion after neutralization: 100 mg phospholipid/ml liposomes ca 30 nm in isotonic glycerol
Protocol: Visual assessment may be supported by comparing the transmission optical density (OD) measurements before and after the compound is added when the system is at equilibrium. […] The figures should be at least 80% of the initial transmission value of the blank dispersion which is used as a control. […] When the liposome dispersions are not sufficiently transparent the loading process can nevertheless be followed by e.g. using microscopy techniques to detect unassociated drug particles.
A first aqueous suspension comprising SUVs is prepared in a micro-fiuidizer. The dispersion contains 100 mg phospholipid/ml in isotonic glycerol solution.

[2] = cited from earlier work
[3] = control experiment without phospholipid: isotonic glycerol solution neutralized to pH 7.0; format: physicochemical
Protocol: In a control experiment 25 μl of the 100 mg phenytoin/ml solution in 1 M NaOH is added to 1.0 ml of isotonic glycerol solution to make up 2500 μg phenytoin/ml.

[4] = cited from earlier work; remark: listed apart in the source
[5] = cited from earlier work; remark: listed apart in the source
[6] = 5 mg drug/ml, neutralized to pH 7.0 with NaOH
[7] = 5 mg drug/ml in isotonic glycerol solution, neutralized to pH 7.0 with NaOH
[8] = 2.5 mg drug/ml in isotonic glycerol solution, neutralized to pH 7.0

Structure (SMILES) | precipitation in liposomal dispersion after neutralization [1, 6] | solubility at pH 1.2 [2] [μg/ml] | solubility in water at pH 7 [2] [μg/ml] | precipitation in control without lipid after neutralization [3, 7] | precipitation in control without lipid after neutralization [3, 8] | also measured
CC(=O)N1CCN(c2ccc(OCC3COC(Cn4ccnc4)(c4ccc(Cl)cc4Cl)O3)cc2)CC1 (centres unmarked) [ketoconazole] | no precipitated ketoconazole can be seen | 2729 | 2 | precipitates |  | 
OCCN(CCO)c1nc(N2CCCCC2)c2nc(N(CCO)CCO)nc(N3CCCCC3)c2n1 [dipyridamole] |  | 1753 | 5 |  | precipitates | precipitation in liposomal dispersion after neutralization ([1]; 2.5 mg drug/ml, neutralized to pH 7.0): No precipitated dipyridamole is noticed; pKa [4]: 6.4
O=C1NC(=O)C(c2ccccc2)(c2ccccc2)N1 [Phenytoin sodium] |  |  |  |  |  | solubility at pH 10-pH13 ([2]; pH 10-pH13, according to Martindale): freely soluble
O=C1NC(=O)C(c2ccccc2)(c2ccccc2)N1 [phenytoin] |  |  | 3.7 |  | precipitates | Log P oil/water [5]: 2.3; amount solubilized in the liposomes ([1]; pH 7): 2500 µg; solubility in water at pH 7 ([2]; listed as Phenytoin): 37 μg/ml
CN1C(=O)CN=C(c2ccccc2)c2cc(Cl)ccc21 [diazepam] | remain dear without diazepam precipitates |  |  | precipitates out |  | 
